According to PubChem BioAssay AID2060901 (Molecular Pharmacology Branch, DTP, NCI, 2025):

Test system: 422866-222-R5-J1-PDC complex spheroids viability
Experiment: Anticancer human tumor 422866-222-R5-J1-PDC patient-derived pancreatic adenocarcinoma cell line growth inhibition [RAS]
Details: for IC50: curve of first compound; for viability, T/C: stronger effect = lower value
In short: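 Multi-cell-type spheroids: tumor cells plus HUVEC endothelial cells and mesenchymal stem cells. RAS-pathway inhibitors were combined with targeted agents, each dosed in half-log steps down from clinical Cmax, or from 10 microM when Cmax was unknown.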
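Further: spheroids exposed to compounds for 7 days.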
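Wherever viability, T/C is given: 100% = DMSO vehicle control viability.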

CC1(C)CCC(Nc2ncc(C(F)(F)F)c(-c3c[nH]c4c(P(C)(C)=O)c(C#N)ccc34)n2)CN1 (centres undefined) + CCn1c(-c2cc(N3CCN(C)CC3)cnc2C(C)OC)c2c3cc(ccc31)-c1csc(n1)CC(NC(=O)C1CC1C)C(=O)N1CCCC(N1)C(=O)OCC(C)(C)C2
IC50 (second compound 0.000949 µM): < 0.949 nM | IC50 (second compound 0.003 µM): < 0.949 nM | IC50 (second compound 0.00949 µM): < 0.949 nM | IC50 (second compound 0.03 µM): < 0.949 nM | IC50 (second compound 0.0949 µM): < 0.949 nM | IC50 (second compound 0.3 µM): < 0.949 nM | viability, T/C (second compound 0.000949 µM, first compound 0.000949 µM): 30.6% | viability, T/C (second compound 0.000949 µM, first compound 0.003 µM): 29.6% | viability, T/C (second compound 0.000949 µM, first compound 0.00949 µM): 32.5% | viability, T/C (second compound 0.000949 µM, first compound 0.03 µM): 31.7% | viability, T/C (second compound 0.000949 µM, first compound 0.0949 µM): 30% | viability, T/C (second compound 0.000949 µM, first compound 0.3 µM): 33.4% | viability, T/C (second compound 0.003 µM, first compound 0.000949 µM): 24.3% | viability, T/C (second compound 0.003 µM, first compound 0.003 µM): 24% | viability, T/C (second compound 0.003 µM, first compound 0.00949 µM): 27.2% | viability, T/C (second compound 0.003 µM, first compound 0.03 µM): 27.5% | viability, T/C (second compound 0.003 µM, first compound 0.0949 µM): 26.9% | viability, T/C (second compound 0.003 µM, first compound 0.3 µM): 31.3% | viability, T/C (second compound 0.00949 µM, first compound 0.000949 µM): 21.2% | viability, T/C (second compound 0.00949 µM, first compound 0.003 µM): 21.1% | viability, T/C (second compound 0.00949 µM, first compound 0.00949 µM): 23.1% | viability, T/C (second compound 0.00949 µM, first compound 0.03 µM): 21.6% | viability, T/C (second compound 0.00949 µM, first compound 0.0949 µM): 25.4% | viability, T/C (second compound 0.00949 µM, first compound 0.3 µM): 24.8% | viability, T/C (second compound 0.03 µM, first compound 0.000949 µM): 22.2% | viability, T/C (second compound 0.03 µM, first compound 0.003 µM): 21.2% | viability, T/C (second compound 0.03 µM, first compound 0.00949 µM): 25.4% | viability, T/C (second compound 0.03 µM, first compound 0.03 µM): 23.5% | viability, T/C (second compound 0.03 µM, first compound 0.0949 µM): 25% | viability, T/C (second compound 0.03 µM, first compound 0.3 µM): 22.8% | viability, T/C (second compound 0.0949 µM, first compound 0.000949 µM): 19.1% | viability, T/C (second compound 0.0949 µM, first compound 0.003 µM): 22.9% | viability, T/C (second compound 0.0949 µM, first compound 0.00949 µM): 24.6% | viability, T/C (second compound 0.0949 µM, first compound 0.03 µM): 20.7% | viability, T/C (second compound 0.0949 µM, first compound 0.0949 µM): 23.1% | viability, T/C (second compound 0.0949 µM, first compound 0.3 µM): 28.9% | viability, T/C (second compound 0.3 µM, first compound 0.000949 µM): 19.7% | viability, T/C (second compound 0.3 µM, first compound 0.003 µM): 22.6% | viability, T/C (second compound 0.3 µM, first compound 0.00949 µM): 26.8% | viability, T/C (second compound 0.3 µM, first compound 0.03 µM): 24.1% | viability, T/C (second compound 0.3 µM, first compound 0.0949 µM): 28.1% | viability, T/C (second compound 0.3 µM, first compound 0.3 µM): 28.1%

CC1(O)CCCC1n1c(=O)c(C(F)F)cc2cnc(NC3CCN(S(C)(=O)=O)CC3)nc21 (centres undefined) + C=CC(=O)N1CCN(c2nc(OCC3CCCN3C)nc3c(F)c(-c4nc(N)cc(C)c4C(F)(F)F)c(Cl)cc23)C(C)C1
IC50 (second compound 0.00316 µM): < 31.6 nM | IC50 (second compound 0.01 µM): < 31.6 nM | IC50 (second compound 0.0316 µM): < 31.6 nM | IC50 (second compound 0.1 µM): < 31.6 nM | IC50 (second compound 0.316 µM): < 31.6 nM | IC50 (second compound 1 µM): < 31.6 nM | viability, T/C (second compound 0.00316 µM, first compound 0.0316 µM): 32.6% | viability, T/C (second compound 0.00316 µM, first compound 0.1 µM): 25.6% | viability, T/C (second compound 0.00316 µM, first compound 0.316 µM): 26% | viability, T/C (second compound 0.00316 µM, first compound 1 µM): 31.4% | viability, T/C (second compound 0.00316 µM, first compound 3.16 µM): 33.3% | viability, T/C (second compound 0.00316 µM, first compound 10 µM): 33.1% | viability, T/C (second compound 0.01 µM, first compound 0.0316 µM): 27.6% | viability, T/C (second compound 0.01 µM, first compound 0.1 µM): 25.8% | viability, T/C (second compound 0.01 µM, first compound 0.316 µM): 28.1% | viability, T/C (second compound 0.01 µM, first compound 1 µM): 25.4% | viability, T/C (second compound 0.01 µM, first compound 3.16 µM): 30.3% | viability, T/C (second compound 0.01 µM, first compound 10 µM): 33.9% | viability, T/C (second compound 0.0316 µM, first compound 0.0316 µM): 33.6% | viability, T/C (second compound 0.0316 µM, first compound 0.1 µM): 20.7% | viability, T/C (second compound 0.0316 µM, first compound 0.316 µM): 22.5% | viability, T/C (second compound 0.0316 µM, first compound 1 µM): 21.6% | viability, T/C (second compound 0.0316 µM, first compound 3.16 µM): 26.5% | viability, T/C (second compound 0.0316 µM, first compound 10 µM): 24.9% | viability, T/C (second compound 0.1 µM, first compound 0.0316 µM): 18.4% | viability, T/C (second compound 0.1 µM, first compound 0.1 µM): 19.9% | viability, T/C (second compound 0.1 µM, first compound 0.316 µM): 22.1% | viability, T/C (second compound 0.1 µM, first compound 1 µM): 23% | viability, T/C (second compound 0.1 µM, first compound 3.16 µM): 28% | viability, T/C (second compound 0.1 µM, first compound 10 µM): 29.3% | viability, T/C (second compound 0.316 µM, first compound 0.0316 µM): 21.9% | viability, T/C (second compound 0.316 µM, first compound 0.1 µM): 20.4% | viability, T/C (second compound 0.316 µM, first compound 0.316 µM): 23.6% | viability, T/C (second compound 0.316 µM, first compound 1 µM): 23.8% | viability, T/C (second compound 0.316 µM, first compound 3.16 µM): 29.7% | viability, T/C (second compound 0.316 µM, first compound 10 µM): 35.3% | viability, T/C (second compound 1 µM, first compound 0.0316 µM): 20.6% | viability, T/C (second compound 1 µM, first compound 0.1 µM): 20.3% | viability, T/C (second compound 1 µM, first compound 0.316 µM): 23.9% | viability, T/C (second compound 1 µM, first compound 1 µM): 23.4% | viability, T/C (second compound 1 µM, first compound 3.16 µM): 30.6% | viability, T/C (second compound 1 µM, first compound 10 µM): 40.1%
